Data taken from patent US6242438A, “3-Azetidinylalkylpiperidines or -pyrrolidines as tachykinin antagonists” (Pfizer Inc., priority 1996, dated 2001).

Target: T1, NK3 receptor (Cavia porcellus, UniProt P30098)
T1 construct: contractile effects of the selective NK3 receptor agonist senktide in the guinea-pig ileum; from tissue; host or cells: guinea-pig ileum
T1 sequence (P30098 1-440): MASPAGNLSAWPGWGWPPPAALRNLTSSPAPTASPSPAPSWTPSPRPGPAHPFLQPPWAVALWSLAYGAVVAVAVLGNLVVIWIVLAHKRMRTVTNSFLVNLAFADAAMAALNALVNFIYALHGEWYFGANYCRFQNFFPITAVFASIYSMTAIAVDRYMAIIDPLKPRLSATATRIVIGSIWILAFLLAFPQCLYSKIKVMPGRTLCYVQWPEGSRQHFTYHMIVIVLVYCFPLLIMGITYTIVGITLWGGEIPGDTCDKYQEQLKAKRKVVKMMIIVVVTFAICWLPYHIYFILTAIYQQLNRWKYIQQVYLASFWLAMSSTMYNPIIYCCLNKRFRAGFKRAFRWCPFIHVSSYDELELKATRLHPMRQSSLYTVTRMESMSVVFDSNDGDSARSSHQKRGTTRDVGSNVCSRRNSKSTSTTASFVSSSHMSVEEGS
Assay: NK3 receptor antagonist activity in vitro: antagonism of contractile effects of senktide in guinea-pig ileum
Conditions: antagonism of contractile effects of the selective NK3 receptor agonist senktide, read-out: pIC50 for NK3 activity (converted)
Excerpt: The compounds of the formula (I) and their salts can be tested for NK3 receptor antagonist activity, in vitro, by testing their ability to antagonise the contractile effects of the selective NK3 receptor agonist senktide in the guinea-pig ileum using the method of Maggi et al, Br. J. Pharmacol., 101, 996-1000 (1 990).

IC50: 3.98 nM
SMILES: NS(=O)(=O)N1CCN(C2CN(CCCC3(c4ccc(Cl)c(Cl)c4)CCCN(C(=O)c4ccccc4)C3)C2)CC1 (stereo not shown) [Example 2]
